“And” between values parts separate entries of the source, which are not always exact repeats. Equal values may be shown once. “Also recorded” adds a separate entry of the source. Marks after values point to notes of the source that are not given here.
Columns and labels:
E. coli [1] = test: Checkerboard assay (FIC index); assay type: cell-based, Escherichia coli; details: antibiotic combined with PEP35
Experimental: (§1) Checkerboard assays were carried out as described by Bonapace et al.
(§2) Diagnostic Microbiology and Infectious Diseases 2002; 44:363-366. In brief, checkerboard assays were performed in 96 well microtitre trays using an 8-by-8 well configuration. […] 96-well custom designed microtitre plates contained 100 ul/well of cation adjusted Mueller-Hinton broth (eg. for Enterobacteriaceae) with or without lysed horse blood (2-5% V/V) [eg. for S. pneumoniae] and were inoculated to achieve a final concentration of approximately 5×10^5 CFU/ml and incubated in ambient air for 24 hours prior to reading. Colony counts were performed periodically to confirm inocula. Quality control was performed every two weeks using a variety of ATCC QC organisms including; S. pneumoniae 49619, S. aureus 29213, E. faecalis 29212, E. coli 25922 and P. aeruginosa 27853. […] All peptides were assessed for synergy with β-lactams and vancomycin. For all antimicrobials as well as the peptides, CLSI criteria were used.
(§3) The fractional inhibitory concentration index (FIC index) was used to interpret synergy, antagonism or additivity/indifference. FIC index=FIC of drug A+FIC of drug B where:
(§4) The FIC of drug A and drug B was calculated as follows, FIC drug A=MIC of drug A in combination/MIC of drug A alone and FIC of drug B=MIC of drug B in combination/MIC of drug B alone. Synergy was defined as FIC index ≦0.5, additivity/indifference defined as a FIC between 0.5 and 4 and antagonism defined as an FIC index >4.
(§5) The checkerboard assays were carried out as described by Eliopoulos and Moellering (Chapter 9) in Antibiotic in Laboratory Medicine, Lorian Ed. 1996 as well as Bonapace et al. Diagnostic Microbiology and Infectious Diseases 2002; 44:363-366 and Bonapace et al. Diagnostic Microbiology and Infectious Diseases 2000; 38:43-50. In brief, checkerboard assays were performed in 96 well microtitre trays using an 8-by-8 well configuration. […] 96-well custom designed microtitre plates contained 100 ul/well of cation adjusted Mueller-Hinton broth (eg. for Enterobacteriaceae) with or without lysed horse blood (2-5% V/V) [eg. for S. pneumoniae] and were inoculated to achieve a final concentration of approximately 5×10^5 CFU/ml and incubated in ambient air for 24 hours prior to reading. Colony counts were performed periodically to confirm inocula. Quality control was performed every two weeks using a variety of ATCC QC organisms including; S. pneumoniae 49619, S. aureus 29213, E. faecalis 29212, E. coli 25922 and P. aeruginosa 27853. For all antimicrobials as well as PEP35, CLSI criteria was used.
(§6) The FIC of drug A and drug B is calculated as follows, FIC drug A=MIC of drug A in combination/MIC of drug A alone and FIC of drug B=MIC of drug B in combination/MIC of drug B alone. Synergy is defined as FIC index ≦0.5, additivity/indifference FIC >0.5-4 and antagonism FIC index >4.
(§7) Antimicrobials used included PEP35, cefazolin, ceftriaxone, vancomycin, linezolid, tigecycline and daptomycin versus Gram-positive cocci and PEP35, gentamicin, levofloxacin, piperacillin/tazobactam, meropenem and colistin (Polymyxin E) versus Gram-negative bacilli. These agents were obtained as laboratory grade powders from their respective manufacturers. Stock solutions were prepared and dilutions made as described by the Clinical Laboratory Standards Institute (2005 CLSI).
Organisms included Gram-positive cocci (2 strains of each): Methicillin-susceptible Staphylococcus aureus (MSSA), community-associated (CA) and healthcare-associated (HA) methicillin-resistant Staphylococcus aureus (MRSA), vancomycin-intermediate Staphylococcus aureus (VISA), vancomycin-resistant Staphylococcus aureus (VRSA), methicillin-resistant Staphylococcus epidermidis (MRSE), Streptococcus pyogenes, Streptococcus agalactiae, Streptococcus pneumoniae, Enterococcus faecalis, Enterococcus faecium and vancomycin-resistant enterococcus (VRE). […]

P. aeruginosa = test: Checkerboard assay (FIC index); assay type: cell-based, Pseudomonas aeruginosa; details: antibiotic combined with PEP35
Experimental: as §5, §3, §6, §7
(§8) Organisms included Gram-positive cocci (2 strains of each): Methicillin-susceptible Staphylococcus aureus (MSSA), community-associated (CA) and healthcare-associated (HA) methicillin-resistant Staphylococcus aureus (MRSA), vancomycin-intermediate Staphylococcus aureus (VISA), vancomycin-resistant Staphylococcus aureus (VRSA), methicillin-resistant Staphylococcus epidermidis (MRSE), Streptococcus pyogenes, Streptococcus agalactiae, Streptococcus pneumoniae, Enterococcus faecalis, Enterococcus faecium and vancomycin-resistant enterococcus (VRE). Gram-negative bacilli tested (2 strains of each) included: E. coli, Pseudomonas aeruginosa, Klebsiella pneumoniae, K. oxytoca, Enterobacter cloacae, P. mirabilis and Stenotrophomonas maltophilia. MIC testing, following two subcultures from frozen stock were determined by the CLSI 2005 approved broth microdilution method.

K. pneumoniae = test: Checkerboard assay (FIC index); assay type: cell-based, Klebsiella pneumoniae; details: antibiotic combined with PEP35
Experimental: as §5, §3, §6, §7, §8

K. oxytoca = test: Checkerboard assay (FIC index); assay type: cell-based, Klebsiella oxytoca; details: antibiotic combined with PEP35
Experimental: as §5, §3, §6, §7, §8

E. cloacae = test: Checkerboard assay (FIC index); assay type: cell-based, Enterobacter cloacae; details: antibiotic combined with PEP35
Experimental: as §5, §3, §6, §7, §8

P. mirabilis = test: Checkerboard assay (FIC index); assay type: cell-based, Proteus mirabilis; details: antibiotic combined with PEP35
Experimental: as §5, §3, §6, §7, §8

S. maltophilia = test: Checkerboard assay (FIC index); assay type: cell-based, Stenotrophomonas maltophilia; details: antibiotic combined with PEP35
Experimental: as §5, §3, §6, §7, §8

CA-MRSA = test: MIC (CLSI broth dilution), agent alone; assay type: cell-based, Staphylococcus aureus; details: agent alone, in µg/mL
Experimental: (§9) VISA (strains 92, 95 and 96), VRSA (strains 105 and 106) and E. coli (strain 69717) isolates were also tested. One MSSA was used as a control. All MICs were assessed using CLSI guidelines. Also assessed was the activity of cefazolin, ceftriazone, meropenem, and a piperacillin/tazobactam combination antibiotic. Minimum inhibitory concentration (MIC) is the lowest concentration of an antimicrobial that will inhibit the visible growth of a microorganism after incubation.
(§10) Antimicrobial Susceptibility Testing: A custom designed panel of antimicrobials was created. […] These agents were obtained as laboratory grade powders from their respective manufacturers. Stock solutions were prepared and dilutions made as described by the Clinical Laboratory Standards Institute (2005 CLSI). Following two subcultures from frozen stock the MICs of the antimicrobial agents for the isolates were determined by the CLSI 2005 approved broth macrodilution method. Briefly, test tubes containing doubling antibiotic dilutions (2 ml per tube) of cation adjusted Mueller-Hinton broth (eg. for Enterobacteriaceae) with or without lysed horse blood (2-5% V/V) [eg. for S. pneumoniae] were inoculated to achieve a final concentration of approximately 5×10^5 CFU/ml and incubated in ambient air for 24 hours prior to reading. Colony counts were performed periodically to confirm inocula. Quality control was performed every two weeks using a variety of ATCC QC organisms including; S. aureus 29213, E. faecalis 29212, E. coli 25922 and P. aeruginosa 27853.
(§11) One MSSA was used as a control. All MICs were assessed using CLSI guidelines.
(§12) One MS SA and ATCC reference strains were used as controls. All MICs were assessed using CLSI guidelines.

HA-MRSA = test: MIC (CLSI broth dilution), agent alone; assay type: cell-based, Staphylococcus aureus; details: agent alone
Experimental: as §9, §10, §11, §12

VRSA = test: MIC (CLSI broth dilution), agent alone; assay type: cell-based, Staphylococcus aureus; design: unit not given beside the values
Experimental: as §9
(§13) Antimicrobial Susceptibility Testing: A custom designed panel of antimicrobials was created. The panel included: PEP35, penicillin, piperacillin/tazobactam, cefazolin, ceftriaxone, meropenem, clarithromycin, clindamycin, gentamicin, amikacin, vancomycin, ciprofloxacin, levofloxacin, moxifloxacin, linezolid, trimethoprim/sulfamethoxazole and doxycycline. These agents were obtained as laboratory grade powders from their respective manufacturers. Stock solutions were prepared and dilutions made as described by the Clinical Laboratory Standards Institute (2005 CLSI). Following two subcultures from frozen stock the MICs of the antimicrobial agents for the isolates were determined by the CLSI 2005 approved broth macrodilution method. Briefly, test tubes containing doubling antibiotic dilutions (2 ml per tube) of cation adjusted Mueller-Hinton broth (eg. for Enterobacteriaceae) with or without lysed horse blood (2-5% V/V) [eg. for S. pneumoniae] were inoculated to achieve a final concentration of approximately 5×10^5 CFU/ml and incubated in ambient air for 24 hours prior to reading. Colony counts were performed periodically to confirm inocula. Quality control was performed every two weeks using a variety of ATCC QC organisms including; S. aureus 29213, E. faecalis 29212, E. coli 25922 and P. aeruginosa 27853. For all antimicrobials as well as PEP35, CLSI criteria were used.
as §11

VISA = test: MIC (CLSI broth dilution), agent alone; assay type: cell-based, Staphylococcus aureus; design: unit: µg/mL
Experimental: as §9, §13, §11

E. coli [2] = test: MIC (CLSI broth dilution), agent alone; assay type: cell-based, Escherichia coli; details: E. coli 69716; agent alone
Experimental: as §9, §13, §12

[3] = test system: MRSA, VISA, VRSA and E. coli; test: MIC, agent alone, panel statement; assay type: cell-based; details: versus MRSA, VISA, VRSA and E. coli
Experimental: as §9, §13

[4] = test system: MRSA, VISA, VRSA and E. coli; test: Checkerboard assay, panel statement; assay type: cell-based; details: with β-lactams versus MRSA, VISA, VRSA and E. coli
Experimental: as §1, §2, §3, §4
The fractional inhibitory concentration index (FIC index) was used to interpret synergy, antagonism or additivity/indifference. FIC index=FIC of drug A+FIC of drug B where the FIC of drug A and drug B was calculated as follows, FIC drug A=MIC of drug A in combination/MIC of drug A alone and FIC of drug B=MIC of drug B in combination/MIC of drug B alone. Synergy was defined as FIC index ≦0.5, additivity/indifference defined as an FIC of between 0.5 and 4 and antagonism defined as an FIC index >4.

Molecule	Avg ΣFIC (range) (E. coli [1]; E. coli 69716)	Avg ΣFIC (range) (E. coli [1]; E. coli 70752)	Avg ΣFIC (range) (P. aeruginosa; P. aeruginosa 70849)	Avg ΣFIC (range) (P. aeruginosa; P. aeruginosa 71841)	Avg ΣFIC (range) (K. pneumoniae; K. pneumoniae 70508)	Avg ΣFIC (range) (K. pneumoniae; K. pneumoniae 77081)	Avg ΣFIC (range) (K. oxytoca; K. oxytoca 75316)	Avg ΣFIC (range) (K. oxytoca; K. oxytoca 76874)	Avg ΣFIC (range) (E. cloacae; E. cloacae 80194)	Avg ΣFIC (range) (E. cloacae; E. cloacae 83128)	Avg ΣFIC (range) (P. mirabilis; P. mirabilis 80267)	Avg ΣFIC (range) (P. mirabilis; P. mirabilis 81569)	Avg ΣFIC (range) (S. maltophilia; S. maltophilia 73062)	Avg ΣFIC (range) (S. maltophilia; S. maltophilia 77424)	further results
C[C@H]1COc2c(N3CCN(C)CC3)c(F)cc3c(=O)c(C(=O)O)cn1c23 [Levofloxacin, levofloxacin]	0.93 (0.56-1.12)	1.13 (0.75-1.12)	1.21 (1.03-1.5)	1.13 (1.0-1.25)	0.97 (0.75-1.12)	1.14 (1.06-1.25)	0.88 (0.53-1.25)	0.94 (0.62-1.12)	1.13 (1.0-1.25)	0.98 (0.75-1.12)	>1*	>1*	1.21 (1.03-1.5)	0.94 (0.62-1.12)	
GAHWQFNALTVRGGGS (Laboratory designed HA inhibitor peptide) [PEP-52]															MIC (CA-MRSA; CA-MRSA 69615 (USA400)): > 512 and 1024; MIC (CA-MRSA; CA-MRSA 70857 (USA400)): > 512 and 1024; MIC (HA-MRSA; HA-MRSA 70798 (USA100/800)): > 512 and > 1024; MIC (HA-MRSA; HA-MRSA 77090 (USA100/800), in µg/mL): > 512 and 1024; MIC (VRSA; VRSA 105): > 512 and > 1024; MIC (VRSA; VRSA 106): > 512 and > 1024; MIC (VISA; VISA 92, in µg/mL): > 512 and 1024; MIC (VISA; VISA 95, in µg/mL): > 512 and 1024; MIC (VISA; VISA 96, in µg/mL): > 512 and 1024; MIC (E. coli [2]): > 512 and > 1024; activity (in words) [3]: no activity; also recorded: not active; synergistic activity (in words) [4]: no synergistic activity
gentamicin	1.4 (1.06-2.12)	1.05 (0.75-1.25)	1.11 (1.03-1.25)	1.05 (0.75-1.25)	1.13 (1.0-1.25)	0.89 (0.56-1.25)	1.24 (0.75-2.12)	1.10 (0.75-2.06)	1.4 (0.5-2.12)	1.05 (0.75-1.25)	>1*	>1*	1.4 (0.62-2.25)	1.99 (1.0-4.25) and 1.98 (1.06-4.25)	

Reference: patent publication US9751919B2, “Antimicrobial compositions comprising a hyaluronic acid binding peptide and a β-lactam antibiotic” (priority 2012, dated 2017)
